Assay results published in ChEMBL document CHEMBL5247590, “Novel nitrogen mustard-artemisinin hybrids with potent anti-leukemia action through DNA damage and activation of GPx” (Eur J Med Chem, 2022).
Activity calls are given as the source filed them. No cut-off for these calls is given here.

Experiments:
HCT-116 = assay: Antiproliferative activity against human HCT-116 cells assessed as cell growth inhibition incubated for 72 hrs by MTT assay; format: functional, cell-based; conditions: HCT-116, 72 h
A549 = assay: Antiproliferative activity against human A549 cells assessed as cell growth inhibition incubated for 72 hrs by MTT assay; format: functional, cell-based; conditions: A549, 72 h
SH-SY5Y = assay: Antiproliferative activity against human SH-SY5Y cells assessed as cell growth inhibition incubated for 72 hrs by MTT assay; format: functional, cell-based
CCRF-CEM [1] = assay: Antiproliferative activity against human CCRF-CEM cells assessed as cell growth inhibition incubated for 72 hrs by MTT assay; format: functional, cell-based
[2] = Antiproliferative activity against human L02 cells assessed as cell growth inhibition incubated for 72 hrs by MTT assay; format: toxicity, cell-based
[3] = Selectivity index, ratio of IC50 for human L02 cells to IC50 for human CCRF-CEM cells; format: toxicity; conditions: L02 cells and CCRF-CEM cells, read-out: Selectivity Index
[4] = Selectivity index, ratio of IC50 for human HL-60 cells to IC50 for human CCRF-CEM cells
[5] = Selectivity index, ratio of IC50 for human K562 cells to IC50 for human CCRF-CEM cells
CCRF-CEM [6] = assay: Antiproliferative activity against human CCRF-CEM cells assessed as cell growth inhibition at 0.1875 to 20 uM by CCK8 assay; format: functional, cell-based; conditions: dose 0.1875-20 µM, time 24-48 hrs, TDE = time-dependent effect
CCRF-CEM [7] = assay: Induction of apoptosis in human CCRF-CEM cells assessed as nuclear collapse upto 4 uM incubated for 48 hrs by Hoechst staining based fluorescent microscopic analysis; format: functional, cell-based
CCRF-CEM [8] = assay: Induction of apoptosis in human CCRF-CEM cells assessed as early apoptotic cells at 0.25 uM incubated for 48 hrs by Annexin V-FITC/PI staining based flow cytometry (reference value: 13.4 %); format: functional
CCRF-CEM [9] = assay: Induction of apoptosis in human CCRF-CEM cells assessed as early apoptotic cells at 0.5 uM incubated for 48 hrs by Annexin V-FITC/PI staining based flow cytometry (reference value: 13.4 %); format: functional
CCRF-CEM [10] = assay: Induction of apoptosis in human CCRF-CEM cells assessed as necrotic cells at 0.5 uM incubated for 48 hrs by Annexin V-FITC/PI staining based flow cytometry (reference value: 0.0 %); format: functional
CCRF-CEM [11] = assay: Induction of apoptosis in human CCRF-CEM cells assessed as early apoptotic cells at 2 uM incubated for 48 hrs by Annexin V-FITC/PI staining based flow cytometry (reference value: 13.4 %); format: functional
CCRF-CEM [12] = assay: Induction of apoptosis in human CCRF-CEM cells assessed as late apoptotic cells at 2 uM incubated for 48 hrs by Annexin V-FITC/PI staining based flow cytometry (reference value: 3.2 %); format: functional
CCRF-CEM [13] = assay: Induction of apoptosis in human CCRF-CEM cells assessed as viable cells at 4 uM incubated for 48 hrs by Annexin V-FITC/PI staining based flow cytometry (reference value: 83.4 %); format: functional; conditions: read-out: Activity
CCRF-CEM [14] = assay: Induction of apoptosis in human CCRF-CEM cells assessed as late apoptotic cells at 4 uM incubated for 48 hrs by Annexin V-FITC/PI staining based flow cytometry (reference value: 3.2 %); format: functional
CCRF-CEM [15] = assay: Induction of DNA damage in human CCRF-CEM cells assessed as increase in gammaH2AX phosphorylation incubated for 24 hrs by DAPI staining based immunofluorescence microscopic analysis; format: functional, cell-based; conditions: dose 1-4 µM
CCRF-CEM [16] = assay: Induction of cell cycle arrest in human CCRF-CEM cells assessed as cell accumulation at S phase at 0.5 uM incubated for 24 hrs by PI staining based flow cytometry analysis (reference value: 15.5 %); format: functional
CCRF-CEM [17] = assay: Induction of cell cycle arrest in human CCRF-CEM cells assessed as cell accumulation at G2/M phase at 0.5 uM incubated for 24 hrs by PI staining based flow cytometry analysis (reference value: 61.3 %); format: functional
CCRF-CEM [18] = assay: Induction of cell cycle arrest in human CCRF-CEM cells assessed as cell accumulation at G1 phase at 2 uM incubated for 24 hrs by PI staining based flow cytometry analysis (reference value: 24.1 %); format: functional
CCRF-CEM [19] = assay: Induction of cell cycle arrest in human CCRF-CEM cells assessed as cell accumulation at G2/M phase at 2 uM incubated for 24 hrs by PI staining based flow cytometry analysis (reference value: 61.3 %); format: functional
CCRF-CEM [20] = assay: Inhibition of cell proliferation in human CCRF-CEM cells assessed as decrease in cell number upto 4 uM incubated for 12 hrs by cell counter analysis; format: functional, cell-based
CCRF-CEM [21] = assay: Downregulation of ROS level in human CCRF-CEM cells assessed as increase in GPx activity at 0.125 to 2 uM incubated for 12 hrs in presence of NADPH by […]; format: functional, cell-based; conditions: dose 0.125-2 µM
CCRF-CEM [22] = assay: Downregulation of ROS level in human CCRF-CEM cells assessed as effect on CAT level at 0.125 to 0.5 uM incubated for 12 hrs in presence of NADPH by DCFH-DA probe based flow cytometry analysis; format: functional, cell-based; conditions: dose 0.125-0.5 µM
CCRF-CEM [23] = assay: Downregulation of ROS level in human CCRF-CEM cells assessed as H2O2 level at 1 uM incubated for 12 hrs in presence of NADPH by absorbance based assay; format: functional, cell-based

For `C[C@@H]1CC[C@H]2[C@@H](C)C(OC(=O)c3ccc(N(CCCl)CCCl)cc3)O[C@@H]3O[C@@]4(C)CC[C@@H]1[C@]32OO4` (stereo partly specified), which IC50 (HCT-116) is on record?
The IC50 was 3100 nM.

And the IC50 (A549)?
Its IC50 is 2870 nM.

What about the IC50 (SH-SY5Y) of the same compound?
The IC50 was over 40000 nM.

And the IC50 (CCRF-CEM [1])?
The IC50 was 895 nM.

And the IC50 at 72 h [2]?
The IC50 at 72 h was over 40000 nM.

What about the selectivity ratio [3] of the same compound?
The selectivity ratio was 44.7.

What about the Selectivity Index [4] of the same compound?
The Selectivity Index was 17.2.

What about the Selectivity Index [5] of the same compound?
The Selectivity Index was 1.82.

And the Activity (CCRF-CEM [6])?
Its Activity is “Tde”.

And the Activity (CCRF-CEM [7])?
The Activity was “Active”.

What about the Activity (CCRF-CEM [8]) of the same compound?
Its Activity is 20.5%.

What about the Activity (CCRF-CEM [9]) of the same compound?
Its Activity is 78.6%.

What about the Activity (CCRF-CEM [10]) of the same compound?
The Activity was 0.1%.

What about the Activity (CCRF-CEM [11]) of the same compound?
Its Activity is 33.4%.

And the Activity (CCRF-CEM [12])?
Its Activity is 12.8%.

What about the viability at 4 µM (CCRF-CEM [13]) of the same compound?
The viability at 4 µM was 47.8%.

What about the Activity (CCRF-CEM [14]) of the same compound?
Its Activity is 14.8%.

And the Activity (CCRF-CEM [15])?
The Activity was “Dose-Dependent Effect”.

What about the Activity (CCRF-CEM [16]) of the same compound?
The Activity was 6.8%.

And the Activity (CCRF-CEM [17])?
Its Activity is 70.8%.

And the Activity (CCRF-CEM [18])?
Its Activity is 26.9%.

And the Activity (CCRF-CEM [19])?
Its Activity is 67.1%.

What about the inhibition (CCRF-CEM [20]) of the same compound?
The inhibition was “Active”.

What about the Activity (CCRF-CEM [21]) of the same compound?
The Activity was “Active”.

What about the Activity (CCRF-CEM [22]) of the same compound?
The Activity was “Active”.

What about the Activity (CCRF-CEM [23]) of the same compound?
Its Activity is “inactive”.
